Measurements published in US11376271B1, “Methods of ameliorating the effects of alcoholic liver damage” (FULGENT LIFE INC., priority 2021, dated 2022).

How the values were obtained:
AML12 cells [1] = experiment: NAD+/NADH ratio in AML12 cells; conditions: 1 mM, 6 h, vs control
male C57BL/6J mice = experiment: Tissue NAD+ content after intraperitoneal injection; assay type: in vivo; conditions: 250 mg/kg intraperitoneal, 4 hours
Description: In the below in vivo assays, C57BL/6J male mice (The Jackson Laboratory) (40 days of age) were used. They were kept under standard laboratory conditions with a temperature of 22±1° C., dark/light cycles of 12/12 h, and relative humidity of 55±5%. All animals had free access to food and water, except for indicated fasting periods (and where not indicated for fasting periods of 2 hours before administration).
[…] Specifically, ten 8-week-old male C57BL/6J mice (The Jackson Laboratory) were kept in polycarbonate cages under a 12-h light/dark cycle with free access to food and water. […] Four hours later, the blood samples were collected by cardiac puncture and the mice were executed. Liver, brain, muscle, and adipose tissues were collected, instantly frozen in liquid nitrogen, and then stored at −80° C. until performance of the NAD+ analyses. […] Four hours later, the mice were killed and tissue samples were collected. All animal studies were performed according to the Guidelines for the Care and Use of Experimental Animals. For this NAD+ assay, about 100 mg of frozen tissue was crushed in liquid nitrogen and ultrasonically homogenized in 7% perchloric acid, and then the solution was neutralized and subjected to the NAD+ determination described here.
Data are indicated as mean±SD.

AML12 cells [2] = experiment: Rescue from hydrogen peroxide (HP) genotoxicity: cell survival and NAD+ level; assay type: cell-based; conditions: 500 μM HP + 250 μM compound, 3 h, AML12 cells
Description: Because the increasing extent of NAD+ concentration is of interest, whether NADH can improve the cell survival rate under the stressful conditions of depletion of NAD+ was also assessed. To that end, as genotoxicity can lead to DNA damage, activate poly(ADP-ribose) polymerases and induce NAD+ depletion, genotoxicity was tested. Strong genotoxicity will lead to severe consumption of NAD+ by cells, resulting in cell death. To test genotoxicity, AML12 cells were treated with 500 μM hydrogen peroxide (HP) for 3 hours in the presence or absence of 1 mM NADH, and then the cells were counted and NAD+ was detected in the samples co-treated with NADH (1 mM) or its vehicle. FIG. 4A is a graph comparing the cell survival rate of the HP treated cells, NADH treated cells, and the HP+NADH treated cells relative to a control. And FIG. 4B is a graph comparing the NAD+ level of the HP treated cells, NADH treated cells, and the HP+NADH treated cells relative to a control. The cell survival rates and cellular NAD+ levels in FIGS. 4A-B are expressed as mean±SD.
The effects of NADH and NMN at a lower concentration (250 μM) on AML12 cells was also tested in a separate assay. Specifically, AML12 cells were treated with 500 μM HP in the presence or absence of 250 μm NADH or NMN for 3 h. FIG. 4C is a graph comparing the cell survival rate of the HP treated cells, HP+NADH treated cells, and the HP+NMN treated cells relative to a control. And FIG. 4D is a graph comparing the NAD+ level of the HP treated cells, HP+NADH treated cells, and the HP+NMN treated cells relative to a control. The cell survival rate and cellular NAD+ levels in FIGS. 4C-D are expressed as mean±SD.

With `NC(=O)c1ccc[n+]([C@@H]2O[C@H](COP(=O)([O-])O)[C@@H](O)[C@H]2O)c1` [NMN, nicotinamide mononucleotide, reference compound] the “NAD+/NADH ratio” value (AML12 cells [1]) was “significantly increase”, the “increase of the concentration of NAD+ in the liver” value (male C57BL/6J mice) was 170% and the “effect on NAD+ levels under HP” value (AML12 cells [2]) was “much worse than that of NADH”. For the same molecule, the “effect on cell survival under HP” value (AML12 cells [2]) was “much worse than that of NADH”.
